What was measured:
Assay in all cases: drug sensitivity score (DSS) from 5-point dose-response viability curve (DSS (area-under-curve based score)); higher = more sensitive (stronger growth inhibition or killing); extreme values may be limits of the assay
Conditions in all cases: exposure time: 72 h; concentration range: 5 concentrations over 10,000-fold range
[1] = tested on: CAOV3
Procedure, shortened: (§1)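 Ovarian cancer and normal ovarian cell lines were tested in 384-well plates. Drugs were acoustically dispensed (Echo 550) in DMSO or water at five concentrations spanning a 10,000-fold range, then 1,500 cells per well were added and incubated 3 days at 37°C, 5% CO2. Viability was read by CellTiter-Glo luminescence on a PHERAstar FS. Drug sensitivity score was derived per cell line and drug with Breeze software; higher means more sensitive, zero means no response.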

[2] = tested on: COV318
Procedure, shortened: as §1

[3] = tested on: COV362
Procedure, shortened: as §1

[4] = tested on: HOSE1C
Procedure, shortened: as §1

[5] = tested on: HOSE2C
Procedure, shortened: as §1

[6] = tested on: JHOS2
Procedure, shortened: as §1

[7] = tested on: Kuramochi
Procedure, shortened: as §1

[8] = tested on: OV90
Procedure, shortened: as §1

[9] = tested on: OVCAR4
Procedure, shortened: as §1

[10] = tested on: OVCAR5
Procedure, shortened: as §1

[11] = tested on: OVCAR8
Procedure, shortened: as §1

[12] = tested on: Ovsaho
Procedure, shortened: as §1

SMILES	drug sensitivity score [1]	drug sensitivity score [2]	drug sensitivity score [3]	drug sensitivity score [4]	drug sensitivity score [5]	drug sensitivity score [6]	drug sensitivity score [7]	drug sensitivity score [8]	drug sensitivity score [9]	drug sensitivity score [10]	drug sensitivity score [11]	drug sensitivity score [12]
CCNC(=O)CCC/C=C\C[C@@H]1[C@@H](/C=C/[C@@H](O)CCc2ccccc2)[C@H](O)C[C@@H]1O [Bimatoprost]	0	0	0	0	0	0	0	0	0	0	0	0
Cn1cnc2c(F)c(Nc3ccc(Br)cc3F)c(C(=O)NOCCO)cc21 [Binimetinib]	7.6	0	1.3	0	0	1.5	3.5	13.4	1.7	7.1	0	6.2
Cc1sc2c(c1C)C(c1ccc(Cl)cc1)=N[C@@H](CC(=O)Nc1ccc(O)cc1)c1nnc(C)n1-2 [Birabresib]	13.1	1.7	2.3	15.1	13.4	5.4	12.5	10.2	8.1	10.8	12.6	12.9
CC[C@H](NC(=O)[C@H](C)NC)C(=O)N1C[C@@H](O)C[C@H]1Cc1c(-c2[nH]c3cc(F)ccc3c2C[C@@H]2C[C@H](O)CN2C(=O)[C@H](CC)NC(=O)[C@H](C)NC)[nH]c2cc(F)ccc12 [Birinapant]	9.2	0.2	0	0	0	5.6	0.4	0.8	12.6	0	1.9	11.6
Cc1c(N)nc([C@H](CC(N)=O)NC[C@H](N)C(N)=O)nc1C(=O)N[C@H](C(=O)N[C@H](C)[C@@H](O)[C@H](C)C(=O)N[C@H](C(=O)NCCc1nc(-c2nc(C(=O)NCCC[S+](C)C)cs2)cs1)[C@@H](C)O)[C@@H](OC1OC(CO)C(O)C(O)C1OC1OC(CO)C(O)C(OC(N)=O)C1O)c1cnc[nH]1 (stereo partly specified) [Bleomycin]	2.2	0	0	2.8	4.5	0.8	0	2.6	0.6	2.3	5.6	1
CC(C)C[C@H](NC(=O)[C@H](Cc1ccccc1)NC(=O)c1cnccn1)B(O)O [Bortezomib]	26.4	28.3	24.7	27.4	24.4	24.5	9.3	22.8	24.6	23.9	23	17.8
COc1cc(Nc2c(C#N)cnc3cc(OCCCN4CCN(C)CC4)c(OC)cc23)c(Cl)cc1Cl [Bosutinib]	8	2	8.5	6.8	6.2	7	8.8	8.7	5.7	9.4	6.7	10.5
COc1cc(N2CCC(N3CCN(C)CC3)CC2)ccc1Nc1ncc(Cl)c(Nc2ccccc2P(C)(C)=O)n1 [Brigatinib]	3.3	3.5	1.6	0.3	2.9	2.1	3.5	4	1.7	3.7	0	4.3
Cc1cc2c(F)c(Oc3ncnn4cc(OC[C@@H](C)O)c(C)c34)ccc2[nH]1 [Brivanib]	0	0	0	0	0	0	0	0	0	0	0	0
CCC/C=C/C=C/C(=O)O[C@H]1/C(=C/C(=O)OC)C[C@H]2C[C@H]([C@@H](C)O)OC(=O)C[C@H](O)C[C@@H]3C[C@H](OC(C)=O)C(C)(C)[C@](O)(C[C@@H]4C/C(=C/C(=O)OC)C[C@H](/C=C/C(C)(C)[C@]1(O)O2)O4)O3 [Bryostatin 1]	0.1	1.4	8.9	10.3	1.6	0	0	1.4	1.1	0.2	0	0
Nc1cc(C(F)(F)F)c(-c2cc(N3CCOCC3)nc(N3CCOCC3)n2)cn1 [Buparlisib]	8.7	4.6	3.8	8.6	8.8	4.6	6.1	5.1	5.3	8.8	7.7	6.5
CCN1C(=O)CNc2ncc(-c3ccc(-c4nc[nH]n4)nc3C)nc21 [CC-115]	8	5.6	2.4	12	9.2	7.5	7.3	10.4	9.3	7.4	8.5	11.2
COc1cc(C)[nH]c(=O)c1CNC(=O)c1c(C)n([C@H](C)C2CCOCC2)c2ccccc12 [CPI-360]	0	0	0	0	0	0.2	0	0.6	0	0.8	0	0
Cc1noc2c1-c1ccccc1C(c1ccc(Cl)cc1)=N[C@H]2CC(N)=O [CPI-0610]	8.5	4.1	5.9	9.3	9.9	5	13	7.6	5	9.3	6.4	12.6
CN(C)c1cc2c(cc1Sc1nc3c(N)nccc3n1CCNCC(C)(C)C)OCO2 [CUDC-305]	14.5	4	8.8	11.5	15.3	10.8	5.9	14.5	8.5	10.8	16.4	3
COc1ccc(-c2nc(N3CCOCC3)c3sc(CN(C)c4ncc(C(=O)NO)cn4)cc3n2)cn1 [CUDC-907]	31.3	21.3	20.3	45.8	42.7	26.4	29.4	37	26.2	38.3	41.5	29.2
CO[C@H]1C(=O)[C@]2(C)[C@@H](OC)C[C@H]3OC[C@@]3(OC(C)=O)[C@H]2[C@H](OC(=O)c2ccccc2)[C@]2(O)C[C@H](OC(=O)[C@H](O)[C@@H](NC(=O)OC(C)(C)C)c3ccccc3)C(C)=C1C2(C)C [Cabazitaxel]	29.3	7.3	7.8	29.9	29.8	12.8	10.7	13.2	4.3	25.6	30.6	9
COc1cc2nccc(Oc3ccc(NC(=O)C4(C(=O)Nc5ccc(F)cc5)CC4)cc3)c2cc1OC [Cabozantinib]	0.4	2.2	0.2	0	0.6	1	3.1	4.5	0	1.5	0	0
C=CC(=O)Nc1cc2c(Nc3ccc(F)c(Cl)c3)ncnc2cc1OCCCN1CCOCC1 [Canertinib]	13.2	4.3	5.9	8.4	8.2	7.5	8	7.3	7.7	8	8.4	8.3
CCCCCOC(=O)Nc1nc(=O)n([C@@H]2O[C@H](C)[C@@H](O)[C@H]2O)cc1F [Capecitabine]	0.2	0	0	0.3	0	0	0	0	0	0.3	0	0
CNC(=O)c1ccc(-c2cnc3ncc(Cc4ccc5ncccc5c4)n3n2)cc1F [Capmatinib]	0	0	0	0	0	0	0.1	0	0	0	0	0
O=C(O)C1(C(=O)O)CCC1.[NH2-].[NH2-].[Pt+2] [Carboplatin]	6.1	5.5	0	7.8	5	3.1	4.9	3.6	5.6	4.7	1.9	5.5
CC(C)C[C@H](NC(=O)[C@H](CCc1ccccc1)NC(=O)CN1CCOCC1)C(=O)N[C@@H](Cc1ccccc1)C(=O)N[C@@H](CC(C)C)C(=O)[C@@]1(C)CO1 [Carfilzomib]	24.6	26.5	20.2	27.4	28.4	25.5	12.4	27.6	23.4	24	21.5	28.4
COc1cc2c(Oc3ccc4[nH]c(C)cc4c3F)ncnc2cc1OCCCN1CCCC1 [Cediranib]	0	0.2	0	0	0	0	0	0	0.5	0	0	0.7
Cc1ccc(-c2cc(C(F)(F)F)nn2-c2ccc(S(N)(=O)=O)cc2)cc1 [Celecoxib]	0	0	0	0	0	0	0	0	0	0	0	0
CCS(=O)(=O)N1CCN(c2ccc(Nc3ncc(C(N)=O)c(NC4CC4)n3)cc2)CC1 [Cerdulatinib]	0.2	0	2.7	0	0.8	3.5	0	0.6	0.3	0	0	0
Cc1cc(Nc2ncc(Cl)c(Nc3ccccc3S(=O)(=O)C(C)C)n2)c(OC(C)C)cc1C1CCNCC1 [Ceritinib]	2.7	0.8	0	0.7	2.2	0	2.1	4.9	1.5	3.8	0	3.3
CC(C)[C@H]1C(=O)N[C@@H](CCCNC(=N)N)C(=O)NCC(=O)N[C@@H](CC(=O)O)C(=O)N[C@H](Cc2ccccc2)C(=O)N1C [Cilengitide]	0	0	5.6	0	3.5	1.6	5.4	2.5	2.9	1.1	0.2	17.7
